Experiment: Aqueous solubility of cyclodextrin-ursolic acid inclusion complex versus ursolic acid alone
Format: physicochemical
Conditions: aqueous solutions; CDUA compared with UA alone

aqueous solubility (in words): largely insoluble
SMILES: C[C@H]1[C@H](C)CC[C@]2(C(=O)O)CC[C@]3(C)C(=CC[C@@H]4[C@@]5(C)CC[C@H](O)C(C)(C)[C@@H]5CC[C@]43C)[C@H]12 [UA, 3-β-hydroxy-urs-12-en-28-oic acid]
